Results taken from patent US10323078B2, “Isolated peptides and fragments thereof from fibrinogen for use as drugs, particularly in skin inflammatory diseases” (Universite Paris Descartes, priority 2015, dated 2019).

Tested on: P. acnes surface proteins
Test: Binding of biotinylated ECM ligands to immobilized P. acnes surface proteins
Parameters: species or system Propionibacterium acnes
Settings: 25 μg/ml of protein immobilized per well; various quantity of biotinylated Fg and Collagen I
Method: FIG. 2: Binding of P. acnes surface protein to purified human fibrinogen. (A) P. acnes surface proteins (0.8 to 50 μg/ml) were immobilized onto a 96-well polystyrene plate and probed with biotinylated fibrinogen (0.1 μg/ml) for 2 h at room temperature. (B) P. acnes surface proteins (25 μg/ml) were immobilized onto a 96-well polystyrene plate and probed with various concentrations of biotinylated fibrinogen ranging from 0.1 to 16 μg/ml for 2 h at room temperature. Bound biotinylated fibrinogen were detected with HRP-streptavidine as described in Materials and Methods.
To characterize the interaction between P. acnes and ligands, we used biotinylated molecules in quantitative and qualitative assays. In a first set of assays, ECM ligands (fibrinogen, collagens I, IV, VI and VIII) were used as labelled proteins with biotin. In a second set of assays, P. acnes surface proteins (total extract and purified Pfg) were biotinylated. For quantitative analysis, unlabeled protein were diluted into 50 mM carbonate-bicarbonate, pH 9.6 buffer to yield a protein concentration ranging from 0.01 to 50 μg/ml, and then immobilized to 96-well polystyrene plates at 4° C. overnight. […] After washing, bound peroxidase was detected using the chromogenic peroxidase substrate ABTS. […] Binding activity was detected by incubating the membranes with 20 ml of PBT containing biotinylated proteins (0.1 μg/ml) for 2 h at room temperature followed by three washes with PBT. Bound biotinylated proteins were detected by incubating the membrane with peroxidase conjugated to streptavidin (0.5 μg/ml in PBT) for 1 h at room temperature. After washing, bound peroxidase activity was detected using 3,3′-diaminobenzidine in the presence of CoCl2 and H2O2 (Harlow and Lane, 1988).
In order to identify P. acnes surface protein recognized by ECM ligands, we used the most commons ECM proteins recognize by skin related bacteria like collagens and fibrinogen. […] To identify surface proteins, P. acnes total heat protein extracts were electrophoretically separated and detected by silver staining (FIG. 1B). […]

collagen I: commercial ECM ligand, biotinylated, tested for binding to P. acnes surface proteins [reference compound]
Binding activity of biotinylated ligand to immobilized P. acnes total surface protein: No binding activity
